Data: US20240368104A1, “Novel Dialkoxynaphtho[2,3-C]Furan-1(3H)-One Derivatives and Pharmaceutical Composition For Preventing or Treating Respiratory Disease or SARS-COV-2 Infection Disease, Comprising Same” (priority 2021, published 2024)
Like-named read-outs stand apart in the source and are kept apart here.

What was measured:
[1] = in vitro; details: African green monkey
[2] = tested on: SARS-COV-2; experiment: microbe, parasite or virus in culture; assay type: cell-based; parameters: SI (Selectivity Index, CC50/IC50): unit not given here; details: for SI (Selectivity Index, CC50/IC50): SARS-COV-2, values >50 assumed to be 50; for IC50: read-out: SARS-COV-2 inhibition (IC50)
[3] = Severe acute respiratory syndrome coronavirus 2, Vero, 24 h
[4] = Severe acute respiratory syndrome coronavirus 2, Vero cells, 24 hours infection

In the case of `COc1cc2cc3c(c(-c4ccc(-n5nc(N(C)C)nc5SC)nc4)c2cc1OC)C(=O)OC3.Cl` [Example 223, 9-(6-(3-(dimethylamino)-5-(methylthio)-1H-1,2,4-triazol-1-yl)pyridin-3-yl)-6,7-dimethoxynaphtho[2,3-c]furan-1(3H)-one], the CC50 [1] is reported as over 50 µM, the “SI (Selectivity Index, CC50/IC50)” value [2] is reported as 3.11 and the IC50 [2, 3] is reported as 16.1 µM.

For `COc1cc2cc3c(c(-c4cncc(OC(C)C)c4)c2cc1OC)C(=O)OC3` [Example 200, 9-(5-isopropoxypyridin-3-yl)-6,7-dimethoxynaphtho[2,3-c]furan-1(3H)-one], the CC50 [1] was over 50 µM, the “SI (Selectivity Index, CC50/IC50)” value [2] was 1.77 and the IC50 [2, 4] was 28.2 µM.

For `COc1cc2cc3c(c(-c4ccc(N5CCN(C)CC5)nc4)c2cc1OC)C(=O)OC3` [Example 167, 6,7-dimethoxy-9-(6-(4-methylpiperazin-1-yl)pyridin-3-yl)naphtho[2,3-c]furan-1(3H)-one], the CC50 [1] was over 50 µM, the “SI (Selectivity Index, CC50/IC50)” value [2] was 3.73 and the IC50 [2, 4] was 14.8 µM.

With `COc1cc2cccc(-c3c4c(cc5cc(OC)c(OC)cc35)COC4=O)c2cn1` [Example 133, 6,7-dimethoxy-9-(3-methoxyisoquinolin-8-yl)naphtho[2,3-c]furan-1(3H)-one] the CC50 [1] was over 50 µM, the “SI (Selectivity Index, CC50/IC50)” value [2] was 1.0 and the IC50 [2, 4] was over 50 µM.

For `COc1cc2cc3c(c(-c4cnc(N(C)CCC5OCCO5)nc4)c2cc1OC)C(=O)OC3` [Example 158, 9-(2-((2-(1,3-dioxolan-2-yl)ethyl)(methyl)amino)pyrimidin-5-yl)-6,7-dimethoxynaphtho[2,3-c]furan-1(3H)-one], the CC50 [1] was over 50 µM, the “SI (Selectivity Index, CC50/IC50)” value [2] was 7.26 and the IC50 [2, 4] was 6.89 µM.

In the case of `COc1cc2cc3c(c(-c4cnc(NCC5CC5)nc4)c2cc1OC)C(=O)OC3` [Example 67, 9-(2-((cyclopropylmethyl)amino)pyrimidin-5-yl)-6,7-dimethoxynaphtho[2,3-c]furan-1(3H)-one], the CC50 [1] is reported as over 50 µM, the “SI (Selectivity Index, CC50/IC50)” value [2] is reported as 2.72 and the IC50 [2, 4] is reported as 18.4 µM.

With `COc1cc2cc3c(c(-c4cc5c(cc4OP(=O)(NCCN4CCOCC4)c4ccccc4)OCO5)c2cc1OC)C(=O)OC3` (stereo not drawn) [Example 280, 6-(6,7-dimethoxy-3-oxo-1,3-dihydronaphtho[2,3-c]furan-4-yl)benzo[d][1,3]dioxol-5-yl N-(2-morpholinoethyl)-P-phenylphosphoramidate] the CC50 [1] was over 50 µM, the “SI (Selectivity Index, CC50/IC50)” value [2] was 25.56 and the IC50 [2, 3] was 1.96 µM.

For `CCN(CC)c1ncc(-c2c3c(cc4cc(OC)c(OC)cc24)COC3=O)cn1` [Example 74, 9-(2-(diethylamino)pyrimidin-5-yl)-6,7-dimethoxynaphtho[2,3-c]furan-1(3H)-one], the CC50 [1] was over 50 µM, the “SI (Selectivity Index, CC50/IC50)” value [2] was 98.94 and the IC50 [2, 4] was 0.51 µM.

With `CCN(CCc1cn(CC)c2ccccc12)c1ccc(-c2c3c(cc4cc(OC)c(OC)cc24)COC3=O)cn1` [Example 197, 9-(6-(ethyl(2-(1-ethyl-1H-indol-3-yl)ethyl)amino)pyridin-3-yl)-6,7-dimethoxynaphtho[2,3-c]furan-1(3H)-one] the CC50 [1] was over 50 µM, the “SI (Selectivity Index, CC50/IC50)” value [2] was 2.88 and the IC50 [2, 4] was 17.4 µM.

With `COc1cc2cc3c(c(-c4cc5c(cc4OP(=O)(NC(C)C)c4ccccc4)OCO5)c2cc1OC)C(=O)OC3` (stereo not drawn) [Example 281, 6-(6,7-dimethoxy-3-oxo-1,3-dihydronaphtho[2,3-c]furan-4-yl)benzo[d][1,3]dioxol-5-yl N-isopropyl-P-phenylphosphoramidate] the CC50 [1] was over 50 µM, the “SI (Selectivity Index, CC50/IC50)” value [2] was 3.45 and the IC50 [2, 3] was 14.5 µM.

With `COc1cc2cc3c(c(-c4cc(C)nc5c(F)cccc45)c2cc1OC)C(=O)OC3` [Example 134, 9-(8-fluoro-2-methylquinolin-4-yl)-6,7-dimethoxynaphtho[2,3-c]furan-1(3H)-one] the CC50 [1] was over 50 µM, the “SI (Selectivity Index, CC50/IC50)” value [2] was 1.0 and the IC50 [2, 4] was over 50 µM.

With `COc1cc2cc3c(c(-c4ccc(N5CCCC5)cc4)c2cc1OC)C(=O)OC3` [Example 251, 6,7-dimethoxy-9-(4-(pyrrolidin-1-yl)phenyl)naphtho[2,3-c]furan-1(3H)-one] the CC50 [1] was over 50 µM, the “SI (Selectivity Index, CC50/IC50)” value [2] was 119.39 and the IC50 [2, 4] was 0.42 µM.

In the case of `COc1cc2cc3c(c(-c4ccc5cccnc5c4)c2cc1OC)C(=O)OC3` [Example 118, 6,7-dimethoxy-9-(quinolin-7-yl)naphtho[2,3-c]furan-1(3H)-one], the CC50 [1] is reported as over 50 µM, the “SI (Selectivity Index, CC50/IC50)” value [2] is reported as 257.92 and the IC50 [2, 4] is reported as 0.19 µM.

In the case of `CCN(CC)CCNc1c2c(cc3cc(OC)c(OC)cc13)COC2=O` [Example 6, 9-((2-(diethylamino)ethyl)amino)-6,7-dimethoxynaphtho[2,3-c]furan-1(3H)-one], the CC50 [1] is reported as over 50 µM, the “SI (Selectivity Index, CC50/IC50)” value [2] is reported as 1.00 and the IC50 [2, 4] is reported as over 50 µM.

With `COc1cc2c(OC)c3c(c(-c4ccc5c(c4)OC(F)(F)O5)c2cc1OC)COC3=O` [Example 259, 4-(2,2-difluorobenzo[d][1,3]dioxol-5-yl)-6,7,9-trimethoxynaphtho[2,3-c]furan-1(3H)-one] the CC50 [1] was over 50 µM, the “SI (Selectivity Index, CC50/IC50)” value [2] was 1.00 and the IC50 [2, 4] was over 50 µM.

In the case of `COc1cc2cc3c(c(-c4ccc(N(C)C)nc4)c2cc1OC)C(=O)OC3` [Example 163, 9-(6-(dimethylamino)pyridin-3-yl)-6,7-dimethoxynaphtho[2,3-c]furan-1(3H)-one], the CC50 [1] is reported as over 50 µM, the “SI (Selectivity Index, CC50/IC50)” value [2] is reported as 885.42 and the IC50 [2, 4] is reported as 0.06 µM.

For `COc1cc2cc3c(c(-c4cc5c(cc4OC)OCO5)c2cc1OC)C(=O)OC3` [Example 88, 6,7-dimethoxy-9-(6-methoxybenzo[d][1,3]dioxol-5-yl)naphtho[2,3-c]furan-1(3H)-one], the CC50 [1] was over 50 µM, the “SI (Selectivity Index, CC50/IC50)” value [2] was 3.00 and the IC50 [2, 4] was 16.6 µM.

With `COc1cc2cc3c(c(-c4cnccn4)c2cc1OC)C(=O)OC3` [Example 32, 6,7-dimethoxy-9-(pyrazin-2-yl)naphtho[2,3-c]furan-1(3H)-one] the CC50 [1] was over 50 µM, the “SI (Selectivity Index, CC50/IC50)” value [2] was 1.00 and the IC50 [2, 4] was over 50 µM.

With `CC[C@@H]1CCCCN1c1ncc(-c2c3c(cc4cc(OC)c(OC)cc24)COC3=O)cn1` [Example 113, (R)-9-(2-(2-ethylpiperidin-1-yl)pyrimidin-5-yl)-6,7-dimethoxynaphtho[2,3-c]furan-1(3H)-one] the CC50 [1] was over 50 µM, the “SI (Selectivity Index, CC50/IC50)” value [2] was 50.52 and the IC50 [2, 4] was 0.99 µM.

In the case of `COc1ncc(-c2c3c(cc4cc(OC)c(OC)cc24)COC3=O)cn1` [Example 26, 6,7-dimethoxy-9-(2-methoxypyrimidin-5-yl)naphtho[2,3-c]furan-1(3H)-one], the CC50 [1] is reported as over 50 µM, the “SI (Selectivity Index, CC50/IC50)” value [2] is reported as 9.52 and the IC50 [2, 4] is reported as 5.25 µM.

In the case of `CCCCCCCCN(CCCCCCCC)c1ncc(-c2c3c(cc4cc(OC)c(OC)cc24)COC3=O)cn1.Cl` [Example 95, 9-(2-(dioctylamino)pyrimidin-5-yl)-6,7-dimethoxynaphtho[2,3-c]furan-1(3H)-one hydrochloride], the CC50 [1] is reported as over 50 µM, the “SI (Selectivity Index, CC50/IC50)” value [2] is reported as 1.00 and the IC50 [2, 3] is reported as over 50 µM.

In the case of `COc1cc2cc3c(c(-c4ccc(N5CCSCC5)nc4)c2cc1OC)C(=O)OC3` [Example 10, 6,7-dimethoxy-9-(6-thiomorpholinopyridin-3-yl)naphtho[2,3-c]furan-1(3H)-one], the CC50 [1] is reported as over 50 µM, the “SI (Selectivity Index, CC50/IC50)” value [2] is reported as 91.58 and the IC50 [2, 4] is reported as 0.55 µM.

For `CCN(CCO)c1ncc(-c2c3c(cc4cc(OC)c(OC)cc24)COC3=O)cn1.Cl` [Example 81, 9-(2-(ethyl(2-hydroxyethyl)amino)pyrimidin-5-yl)-6,7-dimethoxynaphtho[2,3-c]furan-1(3H)-one hydrochloride], the CC50 [1] was over 50 µM, the “SI (Selectivity Index, CC50/IC50)” value [2] was 2.43 and the IC50 [2, 3] was 20.6 µM.

For `COc1cc2c(OC)c3c(c(-c4ccc(N5CCOCC5)nc4)c2cc1OC)COC3=O` [Example 267, 6,7,9-trimethoxy-4-(6-morpholinopyridin-3-yl)naphtho[2,3-c]furan-1(3H)-one], the CC50 [1] was over 50 µM, the “SI (Selectivity Index, CC50/IC50)” value [2] was 1.00 and the IC50 [2, 4] was over 50 µM.

For `COc1cc2cc3c(c(-c4cnc(N5CCC[C@@H]5CN5CCCC5)nc4)c2cc1OC)C(=O)OC3` [Example 110, (R)-6,7-dimethoxy-9-(2-(2-(pyrrolidin-1-ylmethyl)pyrrolidin-1-yl)pyrimidin-5-yl)naphtho[2,3-c]furan-1(3H)-one], the CC50 [1] was over 50 µM, the “SI (Selectivity Index, CC50/IC50)” value [2] was 5.78 and the IC50 [2, 4] was 8.66 µM.

In the case of `COc1cc2cc3c(c(-c4ccc5nccc(N6CCNCC6)c5c4)c2cc1OC)C(=O)OC3` [Example 135, 6,7-dimethoxy-9-(4-(piperazin-1-yl)quinolin-6-yl)naphtho[2,3-c]furan-1(3H)-one], the CC50 [1] is reported as over 50 µM, the “SI (Selectivity Index, CC50/IC50)” value [2] is reported as 2.90 and the IC50 [2, 4] is reported as 17.2 µM.

In the case of `COc1cc2cc(CO)c(C(=O)[O-])c(-c3cc4c(cc3O)OCO4)c2cc1OC.[Na+]` [Example 212, 1-(6-hydroxybenzo[d][1,3]dioxol-5-yl)-3-(hydroxymethyl)-6,7-dimethoxy-2-naphthoate sodium (I)], the CC50 [1] is reported as over 50 µM, the “SI (Selectivity Index, CC50/IC50)” value [2] is reported as 2.81 and the IC50 [2, 4] is reported as 17.8 µM.

With `COc1cc2cc(CO)c(C(=O)Cl)c(-c3cc4c(cc3O)OCO4)c2cc1OC` [Example 224, 1-(6-hydroxybenzo[d][1,3]dioxol-5-yl)-3-(hydroxymethyl)-6,7-dimethoxy-2-naphthoyl chloride] the CC50 [1] was over 50 µM, the “SI (Selectivity Index, CC50/IC50)” value [2] was 2.63 and the IC50 [2, 4] was 1.9 µM.

With `COc1cc2cc3c(c(-c4cc(C)nc5c(F)cc(F)cc45)c2cc1OC)C(=O)OC3` [Example 139, 9-(6,8-difluoro-2-methylquinolin-4-yl)-6,7-dimethoxynaphtho[2,3-c]furan-1(3H)-one] the CC50 [1] was over 50 µM, the “SI (Selectivity Index, CC50/IC50)” value [2] was 1.0 and the IC50 [2, 4] was over 50 µM.

For `COc1cc2cc3c(c(-c4ccc5ncc(C)cc5c4)c2cc1OC)C(=O)OC3` [Example 120, 6,7-dimethoxy-9-(3-methylquinolin-6-yl)naphtho[2,3-c]furan-1(3H)-one], the CC50 [1] was over 50 µM, the “SI (Selectivity Index, CC50/IC50)” value [2] was 12.07 and the IC50 [2, 4] was 4.14 µM.
